# {DBCO-TEG} = DBCO-TEG group for click conjugation of the bait; l = locked nucleic acid (LNA); d = 2'-deoxy (DNA)
# Tests used:
# [1] = tested on: Renilla STAT3 3′UTR reporter; assay: Cellular dual luciferase reporter assay (Renilla STAT3 3′UTR reporter, tagged CNOT7) in H1299 cells; format: cell-based; settings: 10 nM, 30 nM, 100 nM ASO-bait, 24 hours, with CNOT7, relative to non-targeting ASO-bait
# From the text: Reporter constructs for cellular assays are depicted in FIG. 12. A luciferase reporter construct was designed to the 3′ UTR of STAT3 fused to Renilla luciferase, which contains the PEST and CP1 destabilizing domains. A second luciferase reporter construct was designed using the 3′UTR of HBB fused to Firefly luciferase, which contains the PEST and CP1 destabilizing domains. The reporter design for both constructs was previously described in Luo E C, et al. Nat Struct Mol Biol. 2020; 27(10):989-1000.
# An antisense oligo was conjugated to the bait molecule AP1867, which binds FKPB12 via click-chemistry to generate a heterobifunctional molecule (ASO-bait). The bait molecule was chemically modified to contain an azide to allow for click chemistry. […]
# A model system to interrogate the ability of a bifunctional RNA binder—CNOT7 binder is depicted in FIG. 13. A parallel approach utilizing a luciferase readout together with mRNA expression analysis was employed to assess the bifunctional molecule's capability to recruit CNOT7 to target mRNA and mediate mRNA degradation. […] A parallel plate was assessed for cell viability using CellTiter Glo (Promega). Data was analyzed by normalizing reporter signal relative to normalizer signal, and this ratio was then normalized to GFP. […]
# STAT3 mRNA = assay: Endogenous STAT3 mRNA expression assay (ddPCR) in H1299 cells expressing tagged CNOT7; format: cell-based; settings: 200 nM ASO-bait, 24 hours, with CNOT7, relative to non-targeting ASO-bait and GFP control
# Protocol: For the endogenous mRNA expression assay, H1299 cells were seeded in a 12-well plate the day before transfection. On the following day, the cells were transfected with the plasmid expressing tagged CNOT7 and incubated for 24 hours. The following day, cells were transfected with 200 nM of the targeting or non-targeting ASO-bait molecules and incubated for 24 hours. In addition, cells were also transfected with a known STAT3 silencing ASO as a positive control for STAT3 mRNA knockdown. Samples were directly lysed in-well for RNA purification using the Promega Maxwell Automated RNA Extractor, followed by single-strand cDNA synthesis. The resulting cDNA was serially diluted at 1:100, which was used in the ddPCR reaction with primers designed to STAT3 and housekeeping genes (CLTC and TBP), the sequences of which are shown below. Data were analyzed by normalizing STAT3 relative to the geomean of TBP and CLTC. All transfections were performed using Lipofectamine 3000 (Invitrogen). […] Thus, the bifunctional molecule is capable of accelerating the degradation of endogenously expressed RNA.
substance,measurement,setting,value
"targeting ASO-bait: ""An antisense oligo was conjugated to the bait molecule AP1867""; oligonucleotide binds ""a sequence in the 3′UTR of STAT3"" (SEQ ID NO:3) (antisense GAAGTACACATTGG; sugars from the 5' end dldldldldldldl, all phosphorothioate, 5' {DBCO-TEG}, methylation of C not given here; Bait AP1867 attached by click chemistry to the 5' DBCO-TEG)",reporter signal (Renilla STAT3 3′UTR normalized to Firefly HBB and GFP),[1],reduction in reporter signal
same,"STAT3 expression (mRNA, ddPCR, normalized to TBP and CLTC)",STAT3 mRNA,reduction in STAT3 expression

# — patent US20260199485A1, “RNA DEGRADERS AND USES THEREOF” (Arrakis Therapeutics, Inc., priority 2022, published 2026)
